Results taken from patent US11518754B2, “Radiolabeled pharmaceuticals and methods of making and using same” (YALE UNIVERSITY, priority 2017, dated 2022).
Where “and” joins values, the source holds several entries; their conditions need not be identical. Equal values may be shown once.

Columns and labels:
SV2A [1] = target: T1, SV2A (Homo sapiens (Human), UniProt Q7L0J3); assay: PET imaging with (R)-11C-3 in patients with temporal lobe epilepsy
Method: PET imaging with (R)-^11C-3 was performed in healthy human subjects and patients with various disorders to determine if SV2A imaging can be used as an in vivo biomarker to detect changes in synaptic density in human diseases.
PET imaging with (R)-^11C-3 was carried out in ten healthy control subjects and nine patients of temporal lobe epilepsy (TLE) with mesial temporal sclerosis (MTS).

SV2A [2] = target: SV2A (Macaca mulatta, UniProt H9EQH8); assay: PET imaging studies in rhesus monkeys; details: for Binding potential (BPND): from VT, centrum semiovale as reference region; for Uptake of radiotracer in blocking studies: levetiracetam (30 mg/kg) or UCB-J (150 μg/kg) i.v. 10 min before radiotracer injection; for Displacement of radiotracer binding by levetiracetam: levetiracetam 30 mg/kg i.v. infused 60 or 90 min post injection of the radiotracer
Sequence of SV2A (Macaca mulatta, UniProt H9EQH8) (H9EQH8 1-742): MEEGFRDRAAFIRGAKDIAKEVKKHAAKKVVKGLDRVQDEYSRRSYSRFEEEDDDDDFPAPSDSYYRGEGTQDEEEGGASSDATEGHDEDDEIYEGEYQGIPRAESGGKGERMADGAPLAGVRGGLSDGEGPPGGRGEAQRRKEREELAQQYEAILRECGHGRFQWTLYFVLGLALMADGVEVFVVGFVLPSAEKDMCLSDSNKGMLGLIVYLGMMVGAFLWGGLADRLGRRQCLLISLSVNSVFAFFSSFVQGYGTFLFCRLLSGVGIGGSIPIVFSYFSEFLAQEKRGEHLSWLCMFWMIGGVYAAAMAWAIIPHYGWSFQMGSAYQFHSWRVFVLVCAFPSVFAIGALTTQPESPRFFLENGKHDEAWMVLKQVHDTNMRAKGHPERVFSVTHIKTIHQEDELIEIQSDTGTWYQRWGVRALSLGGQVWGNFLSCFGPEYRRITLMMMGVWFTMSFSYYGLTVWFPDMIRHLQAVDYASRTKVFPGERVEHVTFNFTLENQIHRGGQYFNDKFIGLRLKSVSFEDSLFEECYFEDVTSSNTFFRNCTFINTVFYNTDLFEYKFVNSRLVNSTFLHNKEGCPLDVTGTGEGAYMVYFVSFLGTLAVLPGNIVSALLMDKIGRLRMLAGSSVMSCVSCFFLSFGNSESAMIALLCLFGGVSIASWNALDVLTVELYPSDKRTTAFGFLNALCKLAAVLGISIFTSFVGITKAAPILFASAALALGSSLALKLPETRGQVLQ
Method: (§1) Experiments were performed in rhesus monkeys (Macaca mulatta). Rhesus monkeys were sedated using intramuscular (i.m.) injection of ketamine and glycopyrrolate approximately 2 hours before the PET scan and anesthesia was maintained with isoflurane (1.5%-2.5%) for the duration of the experiments. Baseline PET scans were obtained after intravenous (i.v.) injection of ^11C-3, ^18F-3, ^18F-4, ^18F-5, ^18F-10, ^18F-11, or ^18F-12.
(§2) Arterial blood samples were collected during the PET scans to calculate the plasma input function and to determine the unmetabolized parent fraction using the automatic column-switching HPLC system. Plasma free fraction (fp) was measured in triplicate using the ultrafiltration method.
(§3) PET scans of the brain were acquired using the FOCUS 220 PET scanner (Siemens Preclinical Solutions) with a reconstructed image resolution of approximately 1.5 mm. After a transmission scan, the radioligand was injected i.v. as a 3 min slow bolus by an infusion pump (PHD 22/2000; Harvard Apparatus). List-mode data were acquired for 120-180 min and binned into sinograms with an applicable number of frames. Scan data were reconstructed with a Fourier rebinning/filtered backprojection algorithm with corrections for attenuation, scanner normalization, radiation scatter, and randoms. Regions of interest were manually delineated on a single representative anatomic rhesus monkey MR image registered to a template image. The regions used in this study were amygdala, brain stem, caudate, centrum semiovale, cerebellum, cingulate cortex, frontal cortex, globus pallidus, insular cortex, nucleus accumbens, occipital cortex, pons, putamen, temporal cortex, and thalamus. Registration parameters were obtained to apply the regions of interest to individual PET scans, and regional time-activity curves were generated. Regional time-activity curves of the brain were analyzed with the 1-tissue-(1T) compartment model. Fit quality was compared with the 2-tissue model and the multilinear analysis method to calculate VT.
(§4) Typical injected radioactivity amount was 0.5-5 mCi per injection, with typical injected mass amount of 1-10 μg.
(§5) Specific binding to SV2A was further examined for ^11C-3, ^18F-3, and ^18F-11 in blocking studies, where levetiracetam or UCB-J ((R)-3) was i.v. infused before injection of the radiotracers.

SV2A [3] = target: T1, SV2A; assay: PET imaging with (R)-11C-3 in patients with Parkinson's disease; type: in vivo; details: PD subjects vs age-matched healthy controls
[4] = Plasma free fraction (fp) by ultrafiltration method; type: in vitro ADME, rhesus monkeys (Macaca mulatta); details: plasma (from arterial blood samples), rhesus monkey plasma
SV2A [5] = target: T1, SV2A; assay: PET imaging with (R)-11C-3 in patients with AD dementia and MCI; type: in vivo; details: AD/MCI patients vs cognitively normal subjects
SV2A [6] = target: SV2A (Papio anubis, UniProt A0A096NYL0); assay: PET measurement in an olive baboon; type: in vivo, olive baboon (Papio anubis); details: gray matter regions, baboon brain
Sequence of SV2A (Papio anubis, UniProt A0A096NYL0) (A0A096NYL0 1-742): as the sequence (H9EQH8 1-742) above, with G108S counted along it
Method: Experiments were conducted in one olive baboon (P. anubis). […] PET images of the brain were acquired using a Siemens Biograph mCT system (Siemens Medical Solutions). […] List-mode data were acquired for 120 min and binned into sinograms with the following frame timing: 6×30 sec; 3×1 min; 2×2 min; and 22×5 min.
PET data were reconstructed with a TrueX+TOF algorithm with corrections for attenuation, normalization, scatter and randoms. Regions of interest (ROIs) were manually delineated on a single representative anatomical baboon magnetic resonance image (MRI) registered to a template image. […] MRI-to-PET registration parameters were obtained to apply the ROIs to individual PET scans, and regional time-activity curves (TACs) were generated. VT values were estimated using a one-tissue (1T) compartment model with the metabolite-corrected input function.
Arterial blood samples were collected to determine the plasma input function, including measurement of the unmetabolized ^11C-3 fraction. The free fraction of ^11C-3 in plasma was determined in arterial blood samples taken immediately before ^11C-3 injection.

[7] = PET imaging studies in rhesus monkeys; details: rhesus monkey, in vivo, Distribution volume (VT), 1T model
Method: as §1, §2, §3, §4, §5

[8] = rhesus monkey brain after i.v. injection

T1 sequence (Q7L0J3 whole entry, looked up, the tested form may be a part): as the sequence (H9EQH8 1-742) above, with S64G, V572I counted along it

Compound	Binding potential (BPND) (SV2A [2]; Amygdala)	Binding potential (BPND) (SV2A [2]; Brainstem)	Binding potential (BPND) (SV2A [2]; Caudate nucleus)	Binding potential (BPND) (SV2A [2]; Cerebellum)	Binding potential (BPND) (SV2A [2]; Cingulate cortex)	Binding potential (BPND) (SV2A [2]; Frontal cortex)	Binding potential (BPND) (SV2A [2]; Globus pallidus)	Binding potential (BPND) (SV2A [2]; Hippocampus)	Binding potential (BPND) (SV2A [2]; Insular cortex)	Binding potential (BPND) (SV2A [2]; Nucleus accumbens)	Binding potential (BPND) (SV2A [2]; Occipital cortex)	Binding potential (BPND) (SV2A [2]; Pons)	Binding potential (BPND) (SV2A [2]; Putamen)	Binding potential (BPND) (SV2A [2]; Temporal cortex)	Binding potential (BPND) (SV2A [2]; Thalamus)	fraction unbound [4]	Kp ([7]; Amygdala)	Kp ([7]; Brainstem)	Kp ([7]; Caudate nucleus)	Kp ([7]; Centrum semiovale)	other results
Cc1cnccc1CN1CC(c2cc(F)c(F)c(F)c2)CC1=O (single isomer, unassigned) [^11C-3, 1-((3-methylpyridin-4-yl)methyl)-4-(3,4,5-trifluorophenyl) pyrrolidin-2-one]	0.85 ± 0.34	0.76 ± 0.21	2.40 ± 0.72	1.68 ± 0.31	3.17 ± 0.84	3.18 ± 0.91	1.10 ± 0.28	1.59 ± 0.39	3.12 ± 0.81	3.04 ± 0.69	2.97 ± 0.65	0.75 ± 0.21	2.42 ± 0.63	2.79 ± 0.61	2.03 ± 0.62	0.44 ± 0.01	–	–	–	–	asymmetries in binding relative to 18F-FDG (SV2A [1]; TLE subjects with MTS): 2.3 fold; BPND asymmetry indices (SV2A [1]; hippocampus, nine TLE subjects with MTS): −38±21%; Uptake of radiotracer in blocking studies (SV2A [2]): reduced to background levels; time to SUV peak in gray matter regions (SV2A [2]; rhesus monkey, in vivo, iv): slower; decrease in BPND (SV2A [3]; cortical regions): 16%-20%; decrease in VT (SV2A [3]; cortical regions, listed as (R)-^11C-3): 19-23% and 19%-23%; decrease in BPND (SV2A [3]; putamen): 16%; decrease in VT (SV2A [3]; putamen): 15%; decrease in BPND (SV2A [3]; substantia nigra): 33%; decrease in VT (SV2A [3]; substantia nigra): 19%; reduction in hippocampal VT (SV2A [5]; P=0.001): 28%; reduction in hippocampal SV2A binding (BPND) (SV2A [5]; P=0.005): 41%; peak uptake (standardized uptake value, SUV) (SV2A [6]): 10-15; time to peak uptake after injection (SV2A [6]): 6 to 16 min
Cc1cnccc1CN1CC(c2cc(F)cc(F)c2)CC1=O (stereo not drawn) [^18F-5, 4-(3,5-Difluorophenyl)-1-((3-methylpyridin-4-yl)methyl)pyrrolidin-2-one]	1.70 ± 1.51	0.59 ± 0.57	2.09 ± 1.37	2.16 ± 0.15	4.49 ± 0.50	4.26 ± 0.57	1.04 ± 0.09	2.36 ± 0.51	4.16 ± 0.42	3.09 ± 2.04	3.75 ± 0.11	0.80 ± 0.03	3.03 ± 0.55	3.60 ± 0.22	3.08 ± 0.96	0.42 ± 0.03	20.5 ± 6	15 ± 4	31.9 ± 4.8	8.3 ± 2.4	Kp ([7]; Cerebellum): 26.1 ± 6.5; Kp ([7]; Cingulate cortex): 45 ± 9.2; Kp ([7]; Frontal cortex): 43 ± 8.1; Kp ([7]; Globus pallidus): 19.3 ± 2.4; Kp ([7]; Hippocampus): 27.3 ± 4; Kp ([7]; Insular cortex): 42.3 ± 9.1; Kp ([7]; Nucleus accumbens): 41.9 ± 7.8; Kp ([7]; Occipital cortex): 39.3 ± 10.7; Kp ([7]; Pons): 14.9 ± 4.1; Kp ([7]; Putamen): 32.8 ± 5.2; Kp ([7]; Temporal cortex): 37.9 ± 9.4; Kp ([7]; Thalamus): 32.7 ± 1.9; Displacement of radiotracer binding by levetiracetam (SV2A [2]): reduced the binding of these tracers to a significant extent; time to SUV peak in gray matter regions (SV2A [2]; [8]): slower
O=C1CC(c2cc(F)c(F)c(F)c2)CN1Cc1ccncc1F (stereo not drawn) [^18F-10, 1-((3-fluoropyridin-4-yl)methyl)-4-(3,4,5-trifluorophenyl)pyrrolidin-2-one]	−0.03	0.01	0.37	0.22	0.59	0.46	0.14	0.12	0.48	0.43	0.53	0.04	0.39	0.39	0.19	0.52	9.8	10.2	13.8	10.1	Kp ([7]; Cerebellum): 12.3; Kp ([7]; Cingulate cortex): 16; Kp ([7]; Frontal cortex): 14.7; Kp ([7]; Globus pallidus): 11.5; Kp ([7]; Hippocampus): 11.3; Kp ([7]; Insular cortex): 14.9; Kp ([7]; Nucleus accumbens): 14.4; Kp ([7]; Occipital cortex): 15.5; Kp ([7]; Pons): 10.5; Kp ([7]; Putamen): 14; Kp ([7]; Temporal cortex): 14; Kp ([7]; Thalamus): 12; time to SUV peak in gray matter regions (SV2A [2]; [8]): ≤ 10 min
Cc1cnccc1CN1CC(c2cccc(F)c2)CC1=O (stereo not drawn) [^18F-11, 4-(3-Fluorophenyl)-1-((3-methylpyridin-4-yl)methyl)pyrrolidin-2-one]	1.05 ± 0.29	0.53 ± 0.42	2.29 ± 0.88	1.59 ± 0.76	3.49 ± 1.52	3.29 ± 1.40	1.13 ± 0.61	1.58 ± 0.59	3.00 ± 1.21	3.12 ± 1.26	2.90 ± 1.50	0.46 ± 0.51	2.21 ± 0.89	2.63 ± 1.33	2.18 ± 0.77	0.42 ± 0.02	8.7 ± 2.4	6.6 ± 2.9	13.2 ± 2.6	4.4 ± 1.5	Kp ([7]; Cerebellum): 10.8 ± 2.6; Kp ([7]; Cingulate cortex): 18.2 ± 2.2; Kp ([7]; Frontal cortex): 17.4 ± 2.2; Kp ([7]; Globus pallidus): 8.8 ± 1.8; Kp ([7]; Hippocampus): 10.7 ± 2.8; Kp ([7]; Insular cortex): 16.8 ± 2.6; Kp ([7]; Nucleus accumbens): 16.4 ± 2.9; Kp ([7]; Occipital cortex): 15.7 ± 2.7; Kp ([7]; Pons): 6.4 ± 3.5; Kp ([7]; Putamen): 13.6 ± 2.3; Kp ([7]; Temporal cortex): 14.7 ± 2.5; Kp ([7]; Thalamus): 13.2 ± 2.1; Displacement of radiotracer binding by levetiracetam (SV2A [2]): reduced the binding of these tracers to a significant extent; Uptake of radiotracer in blocking studies (SV2A [2]): reduced to background levels; time to SUV peak in gray matter regions (SV2A [2]; [8]): ≤ 10 min
